Measured values published in patent publication US8765729B2, “Cancer therapy” (Aeolus Sciences, Inc., priority 2001, dated 2014).

Legend:
[1] = tested on: R3230 mammary adenocarcinoma cells in Z-chambers; assay: Tumor development in Z-chambers; assay type: in vivo, Fisher-344 rats; settings: 6 mg/kg i.p. 24 hours before implantation of 2.5 mil./ml cells
Procedure: FIG. 4. Animals were pretreated with different SOD mimetics (6 mg/kg i.p.) 24 hours before implantation of 2.5 mil./ml R3230 mammary adenocarcinoma cells in Z-chambers.
These chambers are constructed from customized plexi-glass rings with internal diameter of 10 mm and have a pore on the side. The two open surfaces are covered by nylon mesh (pore size 180 microns, Millipore, Mass.) and glued to the rings. Fibrinogen (Human fibrinogen, plasminogen depleted, CalBiochem) is prepared in DMEM, Gibco BRL) and a concentration of 4-5 mg/ml is utilized for the studies. Although the Fischer rats used in the study are immune competent, this purified batch of fibrinogen has been recognized to be very well conserved across species lines. It has already been shown that early angiogenic response to human fibrinogen is very similar to rat fibrinogen in fibrin gel chambers. The two different types of fibrinogen have also been tested in the Z-Chambers and no difference was found in angiogenic and healing response. Human fibrinogen was used.
The Fibrin Z-Chambers have fibrinogen solution poured inside the chamber through the pore and followed by 2 units of thrombin. […]
The Z-Chambers were harvested on day 1 or 12 post surgery. […] The depth of either the tumor tissue (tumor growth) or granulation tissue (wound healing) was measured with calipers on the 4×6 inch print. […]

[2] = tested on: oral mucositis induced by acute radiation; assay: Oral mucositis induced by acute radiation in hamsters; assay type: in vivo
Procedure: Forty hamsters were given an acute radiation dose directed to their oral mucosa. Test materials will be applied by injection, or topically (three times per day) beginning the day before radiation and continuing until day 20. Mucositis were evaluated on alternate days beginning on day 6 (day of radiation=day 0) and continuing until the conclusion of the experiment on day 28.
Forty (40) hamsters were used. The hamsters were randomized into five (5) groups of eight (8) animals each. Each group was assigned a different treatment of 0.2 ml tid as follows:
Parameters measured included the mucositis score, weight change and survival. For the evaluation of mucositis, the animals were anesthetized with inhalation anesthetics ([…] or Halothane), and the left pouch everted. Mucositis was scored both clinically during the laboratory portion of the study and in a blinded manner (at the conclusion of the study). Clinical scoring was performed by visual comparison to a validated photographic scale, ranging from 0 for normal, to 5 for severe ulceration.
• 0 Pouch completely healthy. No erythema or vasodilation • 1 Light to […] erythema and vasodilation. No erosion of mucosa • 2 Severe erythema and vasodilation. Erosion of superficial aspects of mucosa leaving denuded areas. Decreased stippling of mucosa. • 3 Formation of off-white ulcers in one or more places. Ulcers may have a yellow/gray due to pseudomembrane. Cumulative size of ulcers should equal about ¼ of the pouch. Severe erythema and vasodilation. • 4 Cumulative seize of ulcers should equal about ½ of the pouch. Loss of pliability. Severe erythema and vasodilation. • 5 Virtually all of pouch is ulcerated. Loss of pliability (pouch can only partially be extracted from mouth) A score of 1-2 is considered to represent a mild stage of the disease, whereas a score 3-5 is considered to indicate moderate to severe mucositis. Results
Chi-square analysis of the total number of days the animals in each group spent with a score of three or more. This statistic is a measure of severity of ulceration, a clinically important outcome. Significant efficacy is indicated in red.

[3] = SOD activity (cytochrome C method); assay type: biochemical
Excerpt: FIGS. 1A-1H show the structures of certain generic and specific definitions of compounds suitable for use in the present invention. With reference to FIG. 1C, mimetics of the invention can be of Formula I or Formula II, or dimeric forms thereof, an example of a dimeric form being shown in FIG. 1D. With reference to FIG. 1H, the SOD activities of certain of the depicted compounds are shown in Table 1 (as measured by the cytochrome C method): […]

[4] = high dose IP (1 mg/ml tid), total days 192
[5] = high dose topical (1 mg/ml tid), total days 192
[6] = low dose IP (0.25 mg/ml tid), total days 192
[7] = low dose topical (0.25 mg/ml tid), total days 182

In the case of CCn1cc[n+](CC)c1-c1c2nc(c(-c3n(CC)cc[n+]3CC)c3ccc([nH]3)c(-c3n(CC)cc[n+]3CC)c3nc(c(-c4n(CC)cc[n+]4CC)c4ccc1[nH]4)C=C3)C=C2.[Mn+3] [Compound 10150, manganese(III)tetrakis(N-diethylimidazolium-2,5-yl)porphyrin], the tumor development [1] is reported as “Significant (p<0.01) inhibition of tumor development”, the “Percent Days > 3” value ([2]; INC-01, 0.25 mg/ml IP, control 45.8, P 0.001) is reported as 18.8% and the “Percent Days > 3” value ([2]; INC-01, 0.25 mg/ml Topical, control 45.8, P 0.953) is reported as 45.6%. The “Percent Days > 3” value ([2]; INC-01, 1 mg/ml IP, control 45.8, P 0.005) was 31.3%, the “Percent Days > 3” value ([2]; INC-01, 1 mg/ml Topical, control 45.8, P 0.148) was 38% and the “Percent Days > 3” value ([2]; INC-02, 0.25 mg/ml IP, control 43.3, P 0.004) was 28.6%. For the same compound, the “Percent Days > 3” value ([2]; INC-02, 1.5 mg/ml IP, control 43.3, P 0.002) was 27.6%, the “Percent Days > 3” value ([2]; INC-02, 1.5 mg/ml Topical, control 43.3, P 0.298) was 37.5% and the “Percent Days > 3” value ([2]; INC-02, 5 mg/ml Topical, control 43.3, P 0.002) was 27.6%. The “Percent Days > 3” value ([2]; INC-03, 1 mg/ml IP, control 33.3, P 0.113) was 38.1%, the “Percent Days > 3” value ([2]; INC-04, 0.25 mg/ml IP, control 43.9, P 0.485) was 47.3% and the “Percent Days > 3” value ([2]; INC-05, 0.25 mg/ml IP, control 68.8, P 0.001) was 42.1%. For the same compound, the “Percent Days > 3” value ([2]; INC-05, 1.5 mg/ml IP, control 68.8, P 0.001) was 33.3%, the “reduction in the percent of days with Mucositis Scores ≧3” value ([2]; IP, 0.2 ml of 0.25 mg/ml TID, 1.5 mg/kg/day) was 59% and the “Days < 3” value [2, 4] was 132. For the same compound, the “Days >= 3” value [2, 4] was 60, the “% Days >= 3” value ([2]; high dose IP, control 45.8, P 0.005) was 31.3% and the “Days < 3” value [2, 5] was 119. For the same compound, the “Days >= 3” value [2, 5] was 73, the “% Days >= 3” value ([2]; high dose topical, control 45.8, P 0.148) was 38.0% and the mucositis severity ([2]; high dose topical, not statistically significant) was “tended to reduce mucositis severity”. The “Days < 3” value [2, 6] was 156, the “Days >= 3” value [2, 6] was 36 and the “% Days >= 3” value ([2]; low dose IP, control 45.8, P <0.001) was 18.8%. For the same compound, the “Days < 3” value [2, 7] was 99, the “Days >= 3” value [2, 7] was 83 and the “% Days >= 3” value ([2]; low dose topical, control 45.8, P 0.953) was 45.6%. The “severity of mucositis associated with radiation therapy” value ([2]; most evident with IP administration) was “markedly reduces the severity of mucositis”, the “incidence of severe mucositis” value ([2]; topical dosing, both concentrations) was “not in either group treated by topical dosing” and the SOD activity [3] was 14,789 U/mg.
With “CuZn-SOD: dimeric copper- and zinc-containing enzyme found in the cytosol of all cells” the SOD activity [3] was 2,200 U/mg.
